Measurements published in ChEMBL document CHEMBL4715853 (J Med Chem, 2020).

What was measured:
SARS-CoV-2 [1] = experiment: Antiviral actvity against SARS-CoV2 infected in human assessed as latency time to pyrexia reduction at 1600 mg administered twice on day 1 and 600 mg BID for 7 days; assay type: functional, Severe acute respiratory syndrome coronavirus 2; details: time 7 day
Zaire ebolavirus [2] = experiment: Antiviral activity against Zaire Ebola virus infected in IFNAR-/- C57BL/6 mouse assessed as mouse survival at 300 mg/kg, po administered twice daily starting from day 6 post infection until day 13 post infection and measured at the end of 3 weeks; assay type: functional
[3] = Selectivity index, ratio of CC50 for African green monkey Vero E6 cells to EC50 for 2019-nCoV Beta CoV/Wuhan/WIV04/2019 infected in African green monkey Vero E6 cells; assay type: toxicity, Vero C1008; details: read-out: Ratio CC50/EC50
SARS-CoV-2 [4] = experiment: Antiviral actvity against SARS-CoV2 infected in human assessed as improvement rate of chest at 1600 mg, po administered twice on day 1 and 600 mg BID on day 2 to 14 and measured after 14 days by computed tomography; assay type: functional, Severe acute respiratory syndrome coronavirus 2; details: time 14 day
[5] = Toxicity in human infected with SARS-CoV2 assessed as adverse events at 1600 mg, po administered twice on day 1 and 600 mg BID on day 2 to 14 and measured after 14 days; assay type: organism-based; details: in vivo, 336 h, time 14 day
SARS-CoV-2 [6] = experiment: Antiviral actvity against SARS-CoV2 infected in human assessed as latency time to cough relief at 1600 mg administered twice on day 1 and 600 mg BID for 7 days; assay type: functional, Severe acute respiratory syndrome coronavirus 2; details: time 7 day
SARS-CoV-2 [7] = experiment: Antiviral activity against 2019-nCoV BetaCoV/Wuhan/WIV04/2019 infected in African green monkey VeroE6 cells assessed as reduction in viral yield preincubated with virus for 1 hr followed by cell infection and […] by qRT-PCR method; assay type: functional, organism-based; details: Severe acute respiratory syndrome coronavirus 2, BetaCoV/Wuhan/WIV04/2019, Vero C1008
Zaire ebolavirus [8] = experiment: Antiviral activity against Zaire Ebola virus infected in African green monkey Vero E6 cells measured after 5 days by immunofocus assay; assay type: functional, organism-based; details: Vero C1008, 120 h
[9] = Cytotoxicity against African green monkey Vero E6 cells by the CCK8 assay; assay type: cell-based, Vero C1008; details: chlorocebus sabaeus
[10] = Inhibition of SARS Coronavirus helicase pp1ab domain assessed as reduction in helicase activity using DT20Cy3/Release BHQ oligomers by FRET-based assay; set-up: species or system Severe acute respiratory syndrome-related coronavirus
[11] = Inhibition of SARS Coronavirus helicase pp1ab domain assessed as reduction in ATPase activity by phosphomolybdate-malachite green assay; set-up: species or system Severe acute respiratory syndrome-related coronavirus
[12] = Cytotoxicity against Rhesus macaque FRhK-4 cells by MTT assay; assay type: cell-based, Macaca mulatta; details: rhesus monkey
SARS-CoV [13] = experiment: Antiviral actvity against SARS-CoV GZ50 infected in Rhesus macaque FRhK-4 cells assessed as reduction in virus-induced cytopathic effect incubated for 24 to 48 hrs by phase-contrast microscopy; assay type: functional, organism-based; details: Severe acute respiratory syndrome-related coronavirus, GZ50, FRhK-4
SARS-CoV [14] = experiment: Antiviral activity against SARS-CoV isolate Frankfurt-1 infected in African green monkey Vero E6 cells incubated for 3 days by MTS assay; assay type: functional, organism-based; details: Severe acute respiratory syndrome-related coronavirus, Frankfurt 1, Vero C1008, 72 h
Human coronavirus OC43 = experiment: Antiviral activity against wild type HCoV-OC43 infected in BHK-21 cells incubated for 72 hrs by RT-PCR method; assay type: functional, cell-based; details: Betacoronavirus 1, BHK-21, 72 h
[15] = Cytotoxicity against human Huh-7 cells incubated for 1 hr by MTS assay; assay type: cell-based
SARS-CoV [16] = experiment: Antiviral activity against SARS-CoV isolate Frankfurt-1 infected in African green monkey Vero E6 cells incubated for 3 days; assay type: functional, organism-based; details: Severe acute respiratory syndrome-related coronavirus, Frankfurt 1, Vero C1008, 72 h
[17] = Cytotoxicity against African green monkey Vero E6 cells incubated for 3 days by the MTS assay; assay type: cell-based, Vero C1008; details: chlorocebus sabaeus, time 3 day
[18] = Cytotoxicity against African green monkey Vero E6 cells by the MTS assay; assay type: cell-based, Vero C1008; details: chlorocebus sabaeus

| SMILES | Time (SARS-CoV-2 [1]) [days] | Activity (Zaire ebolavirus [2]) [%] | selectivity ratio [3] | Activity (SARS-CoV-2 [4]) [%] | Activity [5] [%] | Time (SARS-CoV-2 [6]) [days] | IC50 (SARS-CoV-2 [7]) [µM] | IC50 (Zaire ebolavirus [8]) [µM] | CC50 [9] [µM] | IC50 [10] [nM] | IC50 [11] [nM] | CC50 [12] [µM] | EC50 (SARS-CoV [13]) [µM] | IC50 (SARS-CoV [14]) [µM] | EC50 (Human coronavirus OC43) [nM] | CC50 at 1 h [15] [µM] | EC50 (SARS-CoV-2 [7]) [nM] | EC50 (SARS-CoV [16]) [µM] | CC50 at 72 h [17] [µM] | CC50 [18] [µM] |
| --- | --- | --- | --- | --- | --- | --- | --- | --- | --- | --- | --- | --- | --- | --- | --- | --- | --- | --- | --- | --- |
| NC(=O)c1nc(F)cnc1O | 1.7 | 100 | > 6.46 | 91.4 | 11.4 | 1.75 | 61.8 | 67 | > 400 | – | – | – | – | – | – | – | – | – | – | – |
| Cc1ncc(CO)c(C23OC4(O)CC(O)(CC(O)(C4)O2)O3)c1O | – | – | – | – | – | – | – | – | – | 3000 | 2300 | 390 | < 10 | – | – | – | – | – | – | – |
| CCN(CC)CCCC(C)Nc1ccnc2cc(Cl)ccc12 (stereo unspecified) [CHLOROQUINE] | – | – | – | – | – | – | – | – | > 100 | – | – | – | – | 8.8 | 330 | > 50 | 1130 | 4.1 | > 128 | 261 |
